Source: patent US20260297508A1, “MODULATORS OF PROTEIN SECRETION” (SANOFI, priority 2023, published 2026)

Key:
[1] = tested on: biotin-induced antibody release, U2OS clone #7 cells; test: High-throughput RUSH screen: biotin-induced cytoplasmic GFP signal decay (antibody release), U2OS clone #7; type: cell-based, human; conditions: for inhibition of the biotin-induced decrease of the GFP signal: 4 h compound, then 40 μM biotin 1 h, screening; for retention of the RUSH antibody in the cytoplasm: screening campaigns, summary
Protocol: FIGS. 4A-4C show the high-throughput screening of chemical compound libraries for the identification of modulators of protein secretion. […] U2OS clone #7 is plated in 384-well plates and incubated for 24 h before treatment with each compound of the Prestwick, ICCB Known Bioactives, or Autophagy Compound Library at 2 concentrations, low and high (with a 10-fold difference). […] The results of the Prestwick library screening at the low drug concentration are plotted. Brefeldin A was used as a positive control of the inhibition of secretion. The compounds causing a cytoplasmic GFP intensity below that observed for biotin-only treated cells are potential enhancers of protein secretion.
U2OS cells were transfected with the streptavidin-KDEL plasmid using Lipofectamine 2000 (Thermo Fisher Scientific) and selected in medium supplemented with G418 (400 μg/mL, Gibco-Invitrogen) for 2 weeks. Limiting dilution in 96-well plates was used for single cell isolation from the selected pool. Clones were amplified and selected based on streptavidin immunofluorescence. Clone #BD6 showing the highest streptavidin expression was further expanded in medium supplemented with G418 (200 μg/mL) and transfected with the anti-PD-L1 IgG RUSH plasmid using Lipofectamine 2000 and selected in medium supplemented with G418 (200 μg/mL) and hygromycin (100 μg/mL, Santa Cruz Biotechnology) for 2 weeks. Limiting dilution in 96-well plates was used for single cell isolation from clone #BD6-derived selected pool. Clones were amplified and selected based on GFP fluorescence and clone #7 was selected for further characterization and screening campaigns.
U2OS clone #7 cells were seeded in black 384-well imaging plates (Greiner bio one), 2,000 cells/well, and incubated for 24 h at 37° C. in a humidified incubator with 5% CO2. Cells were treated on the next day with the compounds from either the Prestwick library at […], the ICCB Known Bioactives library at 1/100^e or 1/1000^e, or the autophagy compound library at 10 μM or 1 μM for 4 h. […] Cells were then fixed as described above and processed for subsequent automated image acquisition using a robot-assisted IXM XL BioImager (Molecular Devices, Sunnyvale, CA, USA) equipped with a Sola light source (Lumencor, Beaverton, OR, USA), adapted excitation and emission filters (Semrock) a 16-bit monochrome sCMOS PCO.edge 5.5 camera (PCO, Kelheim, Germany). A 20× PlanAPO objective (Nikon, Tokyo, Japan) was used to acquire a minimum of 4 view fields in each well. The acquired images were processed using the open-access R software (https://www.r-project.org) with the help of freely available packages EBImage (available on the Bioconductor repository https://www.bioconductor.org), and RBioFormats (https://github.com/aoles/RBioFormats), and the custom packages MetaxpR (https://github.com/asauvat/MetaxpR) and MorphR (https://github.com/kroemerlab/MorphR). Nuclei were first detected using Hoechst 33342 signal and used as a marker to detect cytoplasmic areas based on GFP signal, allowing for the evaluation of cytoplasmic GFP intensity. Data were thereafter extracted and statistically evaluated using R (https://www.r-project.org). Data were normalized using negative and positive controls, reduced and transformed into a Z-score. The experiments were repeated manually at low scale with selected drugs to confirm their effects on secretion, in this second set of assays, U2OS clone #7 cells incubated with secretion inhibitors were fixed and stained with Hoechst as described above for imaging and viability determination based on cell counts.
We next sought to use clone #7 in screening campaigns for the identification of drugs capable of enhancing or inhibiting antibody secretion. […] Cell counting was facilitated by nuclear counterstaining with Hoechst 33324 in order to assess viability and distinguish drug effects on the secretion kinetics from direct cytotoxicity and select relevant drugs for further characterization. […]

[2] = tested on: biotin-induced antibody release, U2OS clone #7 cells; test: Low-throughput validation by imaging of the biotin-induced antibody release (cytoplasmic GFP), clone #7; type: cell-based, human; conditions: FIG. 5C
Protocol: FIGS. 5A-5C show selection of potential enhancers of protein secretion. FIGS. 5A and 5B) show dot plot representations of drugs efficiency based on their Z-scores measured at low and high drug concentration (FIG. 5A, Prestwick library; FIG. 5B, ICCB Known Bioactives and TargetMol Autophagy libraries). Compounds selected for further characterization are listed. (FIG. 5C) Clone #7 was treated with the indicated compounds, fixed and analyzed as described in FIG. 4A legend.
FIG. 6A-6C show validation of enhancers of protein secretion.
(§1) U2OS clone #7 cells were seeded in black 384-well imaging plates (Greiner bio one), 2,000 cells/well, and incubated for 24 h at 37° C. in a humidified incubator with 5% CO2. Cells were treated on the next day with the compounds from either the Prestwick library at […], the ICCB Known Bioactives library at 1/100^e or 1/1000^e, or the autophagy compound library at 10 μM or 1 μM for 4 h. […] Cells were then fixed as described above and processed for subsequent automated image acquisition using a robot-assisted IXM XL BioImager (Molecular Devices, Sunnyvale, CA, USA) equipped with a Sola light source (Lumencor, Beaverton, OR, USA), adapted excitation and emission filters (Semrock) a 16-bit monochrome sCMOS PCO.edge 5.5 camera (PCO, Kelheim, Germany). A 20× PlanAPO objective (Nikon, Tokyo, Japan) was used to acquire a minimum of 4 view fields in each well. […] Nuclei were first detected using Hoechst 33342 signal and used as a marker to detect cytoplasmic areas based on GFP signal, allowing for the evaluation of cytoplasmic GFP intensity. Data were thereafter extracted and statistically evaluated using R (https://www.r-project.org). […]
Medium- and high-throughput screenings often yield false positive and negative hits, calling for independent validation in low-throughput experiments with orthogonal technologies. In a first round of experiments, we evaluated the effects of shortlisted compounds with potential antibody secretion enhancer activity. […]

[3] = tested on: RUSH antibody secretion, U2OS clone #7 cells; test: ELISA on immobilized PD-L1: RUSH antibody titer in supernatant of treated clone #7 cells; type: cell-based, human; conditions: 50 μg/mL; for inhibition of antibody secretion, validation: summary; for suppression of antibody secretion compared with brefeldin A: 4 h compound, biotin 30 min, FIG. 7A
Protocol: (§2) FIGS. 7A and 7B show validation of inhibitors of protein secretion. […] Clone #7 cells were treated with the indicated compounds and supernatants were assayed for PD-L1 binding. Brefeldin A was used as a protein secretion inhibitor positive control. […] Hoechst 33324 fluorescence was measured, which enabled to number adherent living cells in each well.
U2OS clone #7 cells were seeded in 6-well plates and kept for 24 h at 37° C. in a humidified incubator with 5% CO2. The next day, the supernatants were removed, cells were rinsed with 37° C. pre-heated PBS and new medium containing the chemical treatment was added for 4 h. […] Then supernatants were collected and used for the ELISA assay as follows. MaxiSorp 96-well plates (Thermo Fisher Scientific) were coated with 0.5 μg/mL hFc-human-PD-L1 (R&D Systems, Minneapolis, MN) in PBS for 5.5 h at RT. Coating solution was then removed and 2% BSA/PBS blocking solution was added overnight at 4° C. The next day, wells were washed 3 times with 0.5% BSA/0.05% Tween-20/PBS solution. Supernatants were added after a ⅓ dilution in 0.5% BSA/0.05% Tween-20/PBS, for 2.3 h at RT. Wells were washed 3 times with 0.5% BSA/0.05% Tween-20/PBS solution. Anti-human kappa light chain HRP-coupled antibody was added diluted in 0.5% BSA/0.05% Tween-20/PBS at 1/4000^e for 2.3 h at RT. Wells were washed 3 times with 0.5% BSA/0.05% Tween-20/PBS solution before incubation with substrate reagents pack (R&D Systems) for 15 min in the dark. Fifty μL of STOP solution (R&D Systems) were then added to each well and the absorbance in each well was subsequently measured at 450 nm, and 635 nm for background subtraction, using a VICTOR™ X4 (PerkinElmer, Waltham, MA).
Medium- and high-throughput screenings often yield false positive and negative hits, calling for independent validation in low-throughput experiments with orthogonal technologies. In a first round of experiments, we evaluated the effects of shortlisted compounds with potential antibody secretion enhancer activity. Compounds identified in the screening campaigns were tested again on clone #7 at a low concentration (FIG. 6A) or a ten-fold higher concentration (FIG. 6B) for their ability to increase antibody secretion. […] We further characterized these hits in an PD-L1 binding ELISA.

[4] = tested on: U2OS clone #7 cells; test: Toxicity assay: Hoechst staining, number of adherent living cells; type: cell-based, human; conditions: 50 μg/mL; FIG. 7B
Protocol: as §2
as §1, with “Germany).” for “Germany). A 20× PlanAPO objective (Nikon, Tokyo, Japan) was used to acquire a minimum of 4 view fields in each well.”

[5] = tested on: NLRP3; conditions: cited from earlier work
[6] = tested on: eryptosis; apoptosis; conditions: cited from earlier work
[7] = biological target: tyrosine kinase; conditions: tyrosine kinase inhibitor; cited from earlier work
[8] = tested on: ErbB2 tyrosine kinase; conditions: ErbB2 vs EGFR; cited from earlier work
[9] = tested on: TrKA; conditions: cited from earlier work
[10] = tested on: TrKB; conditions: cited from earlier work
[11] = tested on: TrKC; conditions: cited from earlier work

Row | Compound | inhibition of the biotin-induced decrease of the GFP signal [1] | retention of the RUSH antibody in the cytoplasm [1] | effect on secretion by cell imaging [2] | inhibition of antibody secretion, validation [3] | suppression of antibody secretion compared with brefeldin A [3] | cellular viability [4] | NLRP3 activation, release of IL-1β [5] | apoptosis [6] | eryptosis [6] | IC50 [7] | specificity to ErbB2 over EGFR [8] | inhibition of TrKA phosphorylation [9] | inhibitory effect on TrKB [10] | inhibitory effect on TrKC [11]
1 | CO[C@@H]1C[C@@H](C[C@H]2CC[C@H](C)[C@H]([C@@H](C)C(=O)O)O2)O[C@]2(O[C@](C)([C@H]3CC[C@@](C)([C@@H]4O[C@@H]([C@H]5O[C@@](O)(CO)[C@H](C)C[C@@H]5C)C[C@@H]4C)O3)C[C@H]2C)[C@@H]1C [nigericin] | inhibited the biotin-induced cytoplasmic GFP signal decay | caused the retention of the RUSH antibody in the cytoplasm | inhibitory effect | confirmed as a secretion inhibitor | as potent as brefeldin A in suppressing antibody secretion | without affecting cellular viability | leading to the release of IL-1β | triggers apoptosis | promote eryptosis | – | – | – | – | –
2 | CC(C)(C)c1cc(/C=C(\C#N)C(N)=S)cc(C(C)(C)C)c1O [tyrphostin AG-879] | inhibited the biotin-induced cytoplasmic GFP signal decay | caused the retention of the RUSH antibody in the cytoplasm | inhibitory effect | validated as an inhibitor of antibody secretion | as potent as brefeldin A in suppressing antibody secretion | without affecting cellular viability | – | – | – | 10 µM | at least 500 fold | effectively inhibits TrKA phosphorylation | no inhibitory effect | no inhibitory effect
